Experimental data published in US20080306076A1, “MODULATION OF CHEMOSENSORY RECEPTORS AND LIGANDS ASSOCIATED THEREWITH” (SENOMYX, INC., priority 2007, published 2008).
Positions count from the first letter of the chain named.

Experiments:
hT1R1 H308A = target: T1, hT1R1 H308A (Homo sapiens, UniProt Q7RTX1, H308A); test: Mutagenesis study, hT1R1 mutant H308A; assay type: cell-based; details: H308 mutation
T1 construct: expressed in transfected cells; host or cells: HEK293, transient transfection
T1 sequence (Q7RTX1 21-841 H308A): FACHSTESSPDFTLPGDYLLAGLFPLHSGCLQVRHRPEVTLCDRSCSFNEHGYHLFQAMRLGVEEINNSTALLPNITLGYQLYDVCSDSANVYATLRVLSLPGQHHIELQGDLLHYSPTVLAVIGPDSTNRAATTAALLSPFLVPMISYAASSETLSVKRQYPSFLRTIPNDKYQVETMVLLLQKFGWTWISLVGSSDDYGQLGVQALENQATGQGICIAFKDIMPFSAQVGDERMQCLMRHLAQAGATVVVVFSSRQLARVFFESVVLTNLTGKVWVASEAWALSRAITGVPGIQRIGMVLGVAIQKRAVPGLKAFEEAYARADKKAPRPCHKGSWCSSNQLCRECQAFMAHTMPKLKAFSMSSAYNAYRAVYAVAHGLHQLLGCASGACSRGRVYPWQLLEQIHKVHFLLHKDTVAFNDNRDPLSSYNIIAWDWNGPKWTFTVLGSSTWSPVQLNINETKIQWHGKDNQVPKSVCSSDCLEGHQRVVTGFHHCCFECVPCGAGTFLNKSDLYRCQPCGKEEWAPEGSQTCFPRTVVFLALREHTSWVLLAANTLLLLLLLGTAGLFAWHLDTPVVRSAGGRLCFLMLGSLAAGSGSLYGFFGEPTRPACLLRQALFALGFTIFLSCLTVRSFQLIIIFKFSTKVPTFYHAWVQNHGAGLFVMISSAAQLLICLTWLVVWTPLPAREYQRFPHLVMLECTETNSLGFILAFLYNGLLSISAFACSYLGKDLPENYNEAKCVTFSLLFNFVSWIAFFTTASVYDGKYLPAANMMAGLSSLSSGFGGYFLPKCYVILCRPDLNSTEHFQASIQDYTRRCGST
T1 sequence (Q923K1 21-858 partner): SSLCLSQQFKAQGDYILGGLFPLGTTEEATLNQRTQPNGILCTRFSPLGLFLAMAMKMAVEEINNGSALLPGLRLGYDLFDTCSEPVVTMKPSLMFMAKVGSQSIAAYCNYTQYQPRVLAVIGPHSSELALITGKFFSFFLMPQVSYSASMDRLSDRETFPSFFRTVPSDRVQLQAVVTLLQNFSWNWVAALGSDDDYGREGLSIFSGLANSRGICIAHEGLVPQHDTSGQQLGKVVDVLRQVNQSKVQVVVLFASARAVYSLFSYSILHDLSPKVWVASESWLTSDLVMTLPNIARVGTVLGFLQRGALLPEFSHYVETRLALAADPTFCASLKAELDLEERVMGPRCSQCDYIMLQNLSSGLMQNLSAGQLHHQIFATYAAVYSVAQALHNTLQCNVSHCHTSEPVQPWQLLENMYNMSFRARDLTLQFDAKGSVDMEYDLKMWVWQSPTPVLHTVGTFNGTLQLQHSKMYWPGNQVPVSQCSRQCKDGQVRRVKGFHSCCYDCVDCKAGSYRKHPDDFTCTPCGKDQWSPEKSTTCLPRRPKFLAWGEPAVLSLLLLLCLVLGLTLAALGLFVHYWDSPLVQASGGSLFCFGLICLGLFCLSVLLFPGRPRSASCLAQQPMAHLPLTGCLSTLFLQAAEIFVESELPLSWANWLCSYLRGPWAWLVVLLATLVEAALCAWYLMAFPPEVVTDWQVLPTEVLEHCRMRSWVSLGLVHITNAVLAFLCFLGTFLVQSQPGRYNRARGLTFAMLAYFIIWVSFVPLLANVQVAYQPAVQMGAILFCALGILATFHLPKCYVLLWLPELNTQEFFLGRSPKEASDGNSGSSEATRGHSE
Text: (§1) In order to further define the interaction sites of umami stimuli, we performed site-directed mutagenesis on human T1R1 VFT. The mutagenesis was done using the routine PCR-based method. […] were transiently transfected into HEK293 cell together with the rat T1R3 wild type cDNA, and the transfected cells were characterized using an automated FLIPR machine or a calcium imaging system as described in our previous patent applications.

hT1R1 S172A = target: T2, hT1R1 S172A (Homo sapiens, UniProt Q7RTX1, S172A); test: Mutagenesis study, hT1R1 mutant S172A; assay type: cell-based; details: S172 mutant, FIG. 11
T2 construct: expressed in transfected cells; host or cells: HEK293, transient transfection
T2 sequence (Q7RTX1 21-841 S172A): T1 sequence (Q7RTX1 21-841 H308A) with S152A, A288H
T2 sequence (Q923K1 21-858 partner): T1 sequence (Q923K1 21-858 partner)
Text: as §1

Nc1nc2c(ncn2[C@@H]2O[C@H](COP(=O)(O)O)[C@@H](O)[C@H]2O)c(=O)[nH]1 [GMP, guanosine-5′-monophosphate]
enhancement activity of GMP (hT1R1 H308A): similarly affected

N[C@@H](CCC(=O)O)C(=O)O [L-Glu, L-glutamate]
activity against L-Glu (hT1R1 S172A): significant reduced activity
